What was measured:
HHL5 cells [1] = assay: MTT cell viability assay in HHL5 cells; format: cell-based; conditions: HHL5 cells treated in parallel
Procedure: (§1) HHL5 cells seeded in 96-well plates were grown to 90% confluence and then treated with 100 uM oleic acid (OA) or DMSO (−) for 24 hours in the absence or presence of cannabinoids at the indicated concentrations.
(§2) MTT (3-[4,5-dimethyltiazol-2yl]-2,5 diphenyltetrazolium bromide) (5 mg/ml differentiation media) was added to cells treated as described above, and cells were incubated for additional 1 h at 37 C.
(§3) Cells were then washed in PBS and dried before the addition of 100 ul of isopropanol to dissolve the formazan precipitate. The OD of each well was measured with a Genios-Pro plate reader (Tecan) equipped with a 620-nm filter.

HHL5 cells [2] = assay: Intracellular triglyceride levels (AdipoRed) in oleic acid-treated HHL5 cells, in vitro model of fatty liver disease; format: cell-based; conditions: for intracellular lipid (triglyceride) levels, AdipoRed staining: HHL5 cells co-incubated with 100 uM oleic acid and compound for 24 hr
Procedure: (§4) HHL-5 cells were cultured in standard growth media (DMEM [Lonza] supplemented with 10% FBS [Lonza], NEAA [Gibco] and Pen.Strep [Gibco]). 3T3-L1 cells were cultured in growth media (GM; DMEM [Lonza] low NaHCO3 (1.5 g/l), supplemented with 10% FBS [Lonza] and pen./strep. [Gibco]).
as §1
(§5) 3T3-L1 cells were plated in 100 mm plates and differentiated as above to obtain mature adipocytes, at which point they were re-plated into 96-well plates and then treated with the indicated concentrations of cannabinoids for 2 days. Cells were then washed with PBS and stained with AdipoRed (Lonza) and read with a Genios Pro Plate reader (Tecan) according to the manufacturer's instructions.
HHL5 hepatocytes that have been treated with oleic acid to induce intracellular lipid accumulation are a useful in vitro model for fatty liver disease.

[3] = tested on: 3T3-L1-derived mature adipocytes; assay: Intracellular triglyceride levels (AdipoRed) in 3T3-L1-derived mature adipocytes; format: cell-based; conditions: for intracellular lipid stores, AdipoRed staining: mature 3T3-L1-derived adipocytes treated for 48 hours
Procedure: as §4
In order to induce adipogenesis cells were grown to 100% confluence and then switched to differentiation media (DMEM [Lonza] supplemented with a specific lot of 10% FBS [Lonza], 1 ug/ml Insulin (Sigma), 250 nM Dexamethasone (Sigma), 500 uM MIX (Sigma) and pen./strep. [Gibco]) for 2 days, followed by incubation in DMEM [Lonza] supplemented with a specific lot of 10% FBS [Lonza], 1 ug/ml Insulin (Sigma) and pen./strep. [Gibco] until day 7-10 at which point mature adipocytes are treated with cannabinoids at the indicated concentrations.
as §5

[4] = tested on: 3T3-L1-derived mature adipocytes; assay: MTT cell viability assay in 3T3-L1-derived mature adipocytes; format: cell-based; conditions: mature 3T3-L1-derived adipocytes
Procedure: as §5, §2, §3

HHL5 cells [5] = conditions: Wargent et al., 2013; cited from earlier work

Structure (SMILES)	toxicity (cell viability, MTT assay) (HHL5 cells [1]; up to 20 uM)	intracellular lipid (triglyceride) levels, AdipoRed staining (HHL5 cells [2])	intracellular lipid stores, AdipoRed staining [3]	effect on cellular viability (MTT assay) [4]	triglyceride (TG) levels in HHL-5 cells treated with oleic acid (HHL5 cells [5])	toxicity (cell viability, MTT assay) (HHL5 cells [1])	potency in lowering TG levels compared with parent compound CBD (HHL5 cells [2]; HHL5 cells, 100 uM oleic acid, 24 hr)	efficacy in reducing Adipored staining compared with CBD ([3]; mature 3T3-L1-derived adipocytes)
C=C(C)[C@@H]1CCC(C)=C[C@H]1c1c(O)cc(CCCCC)cc1O [CBD, Cannabidiol]	no toxicity was found	dose-dependently lowered intracellular lipid levels	dose-dependently decreased intracellular lipid stores	not associated with any apparent effect on cellular viability	–	–	–	–
CCCc1cc(O)c2c(c1)OC(C)(C)[C@@H]1CCC(C)=C[C@@H]21 [THCV, Tetrahydrocannabivarin]	no toxicity was found	dose-dependently lowered intracellular lipid levels	dose-dependently decreased intracellular lipid stores	not associated with any apparent effect on cellular viability	able to reduce triglyceride (TG) levels in a time dependent manner	–	–	–
CCCc1cc(O)c2c(c1)OC(C)(C)[C@@H]1CCC(CO)=C[C@@H]21 [11-OH-THCV, 11-hydroxy-tetrahydrocannabivarin]	–	devoid of lipid lowering activity	had no effect	not associated with any apparent effect on cellular viability	–	neither 11-OH-THCV or 7-OH-CBD were found to be toxic	–	–
C=C(C)[C@@H]1CCC(CO)=C[C@H]1c1c(O)cc(CCCCC)cc1O [7-OH-CBD, 7-hydroxy-cannabidiol]	–	effective at lowering TG levels	dose-dependently decreased intracellular lipid stores	not associated with any apparent effect on cellular viability	–	neither 11-OH-THCV or 7-OH-CBD were found to be toxic	even more potent that its parent compound CBD	more efficacious than CBD at reducing Adipored staining

— patent US10039724B2, “7-hydroxy cannabidiol (7-OH-CBD) for use in the treatment of non-alcoholic fatty liver disease (NAFLD)” (GW Pharma Limited, priority 2014, dated 2018)
